Source: the NIST ThermoML archive (doi:10.1016/j.jct.2018.12.023)
Numbers after ± are expanded uncertainties. Blank lines part the entries; values can stand above or below the compound they belong to.

Conditions: Liquid, Ebulliometric method (Recirculating still)

vapor or sublimation pressure (372.25 K): 101.3 ± 1.6 kPa
Compound: CCOC(=O)CC [ethyl propanoate]

vapor or sublimation pressure (351.45 K): 101.3 ± 1.6 kPa
Compound: CCO [ethanol]

Compound: CCI [iodoethane]
vapor or sublimation pressure (345.5 K): 101.3 ± 1.6 kPa

vapor or sublimation pressure (414.32 K): 101.3 ± 1.6 kPa
Compound: CCC(=O)O [propanoic acid]
